This assay has as its target T1, HMG-CoA reductase (Rattus norvegicus, UniProt P51639).
T1 construct: from tissue
T1 sequence (P51639 1-887): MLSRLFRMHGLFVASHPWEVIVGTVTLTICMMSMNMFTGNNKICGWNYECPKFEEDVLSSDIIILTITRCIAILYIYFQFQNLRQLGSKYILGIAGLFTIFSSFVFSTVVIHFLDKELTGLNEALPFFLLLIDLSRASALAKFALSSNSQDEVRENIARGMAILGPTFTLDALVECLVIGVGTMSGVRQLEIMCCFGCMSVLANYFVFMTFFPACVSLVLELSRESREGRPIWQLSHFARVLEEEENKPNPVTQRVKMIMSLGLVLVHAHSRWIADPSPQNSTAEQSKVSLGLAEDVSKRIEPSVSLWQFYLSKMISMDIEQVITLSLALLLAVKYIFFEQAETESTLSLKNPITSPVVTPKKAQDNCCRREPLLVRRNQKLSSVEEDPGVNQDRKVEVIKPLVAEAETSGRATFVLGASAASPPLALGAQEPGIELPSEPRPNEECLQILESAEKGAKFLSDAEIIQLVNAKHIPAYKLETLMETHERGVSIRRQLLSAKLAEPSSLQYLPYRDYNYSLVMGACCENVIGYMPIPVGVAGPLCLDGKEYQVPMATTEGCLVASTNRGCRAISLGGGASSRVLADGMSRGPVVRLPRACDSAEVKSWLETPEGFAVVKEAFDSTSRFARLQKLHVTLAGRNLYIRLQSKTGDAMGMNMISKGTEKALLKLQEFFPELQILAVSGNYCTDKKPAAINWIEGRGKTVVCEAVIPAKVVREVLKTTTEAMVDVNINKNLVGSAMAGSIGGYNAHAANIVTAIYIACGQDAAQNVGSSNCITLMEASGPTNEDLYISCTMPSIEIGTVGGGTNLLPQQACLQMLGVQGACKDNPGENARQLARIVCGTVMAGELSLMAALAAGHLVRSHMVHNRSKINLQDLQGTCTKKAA
The assay can be described thus: intrinsic HMG-CoA reductase inhibition, in vitro protocol of J. Med. Chem., 28, p. 347-358 (1985). The conditions noted are these: mevastatin assigned a value of 100; IC50 of test compound compared with that of mevastatin determined simultaneously. Type of assay: biochemical. As for the experimental part: The intrinsic HMG-CoA reductase inhibition activity of the claimed compounds is measured in the in vitro protocol published in J. Med. Chem., 28, p. 347-358 (1985). […] Tabulated below for a number of the claimed compounds are relative potencies which are representative of the intrinsic HMG-CoA reductase inhibitory activities of the claimed compounds.
Regarding “6(R)-[2-[8(S)-(2-trifluormethyl-benzoyloxy)-2(S),6(R)-dimethyl-1,2,6,7,8,8a(R)-hexa-hydronaphthyl-1(S)]ethyl]-4(R)-hydroxy-3,4,5,6-tetrahydro-2H-pyran-2-one”, the “Relative Potency” value is listed as 87.
As for `Cc1ccc(C)c(C(=O)O[C@H]2C[C@@H](C)C=C3C=C[C@H](C)[C@H](CC[C@@H]4C[C@@H](O)CC(=O)O4)[C@H]32)c1`, the “Relative Potency” value was determined as 67.
The same measure for “6(R)-[2-[8(S)-(2-methylbenzoyloxy) -2(S),6(R) -dimethyl-1,2,6,7,8,8a(R) -hexahydronaphthyl-1(S)]ethyl]-4(R)-hydroxy -3,4,5,6-tetrahydro-2H-pyran-2-one”: 67.
Then “6(R)-[2-[(8(S)-(2-chlorobenzoyloxy)-2-(S),6(R)-dimethyl-1,2,6,7,8,8a(R)-hexahydronaphthyl-1-(S)]ethyl]-4(R)-hydroxy-3,4,5,6-tetahydro-2H pyran-2-one”, with 100; and “6(R)-[2-[8(S)-(2-methylthiobenzoyloxy)-2(S),6(R)-dimethyl-1,2,6,7,8,8a(R)- hexahydronaphthyl-1(S)]ethyl-4(R)-hydroxy-3,4,5,6-tetrahydro-2H-pyran-2-one”, with 54; and “6(R)-[2-[8(S)-(2-isopropylbenzoyloxy)-2(S),6(R) -dimethyl-1,2,6,7,8,8a(R)-hexahydronaphthyl-1(S)]ethyl-4(R)-hydroxy-3,4,5,6-tetrahydro-2H-pyran-2-one”, with 173.

The values above are taken from patent US4946864A, “Novel HMG-CoA reductase inhibitors” (Merck & Co., Inc., priority 1988, dated 1990).
